The values that follow come from ChEMBL document CHEMBL1201862, “PubChem BioAssay data set” (2004).

Assay [1] deals with T1, Oxysterols receptor LXR-beta (Homo sapiens, UniProt P55055).
T1 sequence (P55055 whole entry): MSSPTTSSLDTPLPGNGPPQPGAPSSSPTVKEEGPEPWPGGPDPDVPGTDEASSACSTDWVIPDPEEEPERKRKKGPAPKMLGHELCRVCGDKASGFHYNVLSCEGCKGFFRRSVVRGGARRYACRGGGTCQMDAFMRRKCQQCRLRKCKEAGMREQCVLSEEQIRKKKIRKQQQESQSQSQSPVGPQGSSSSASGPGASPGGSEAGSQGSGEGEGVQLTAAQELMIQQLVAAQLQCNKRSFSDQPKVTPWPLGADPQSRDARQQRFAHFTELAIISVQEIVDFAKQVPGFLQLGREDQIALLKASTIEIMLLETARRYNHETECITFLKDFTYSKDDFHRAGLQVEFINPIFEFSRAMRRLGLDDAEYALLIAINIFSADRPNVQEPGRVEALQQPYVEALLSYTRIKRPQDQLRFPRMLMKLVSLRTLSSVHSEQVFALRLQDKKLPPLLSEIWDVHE
It counts as functional, cell-based.

The target of the next assay is T2, Hexokinase HKDC1 (Homo sapiens, UniProt Q2TB90).
T2 sequence (Q2TB90 whole entry): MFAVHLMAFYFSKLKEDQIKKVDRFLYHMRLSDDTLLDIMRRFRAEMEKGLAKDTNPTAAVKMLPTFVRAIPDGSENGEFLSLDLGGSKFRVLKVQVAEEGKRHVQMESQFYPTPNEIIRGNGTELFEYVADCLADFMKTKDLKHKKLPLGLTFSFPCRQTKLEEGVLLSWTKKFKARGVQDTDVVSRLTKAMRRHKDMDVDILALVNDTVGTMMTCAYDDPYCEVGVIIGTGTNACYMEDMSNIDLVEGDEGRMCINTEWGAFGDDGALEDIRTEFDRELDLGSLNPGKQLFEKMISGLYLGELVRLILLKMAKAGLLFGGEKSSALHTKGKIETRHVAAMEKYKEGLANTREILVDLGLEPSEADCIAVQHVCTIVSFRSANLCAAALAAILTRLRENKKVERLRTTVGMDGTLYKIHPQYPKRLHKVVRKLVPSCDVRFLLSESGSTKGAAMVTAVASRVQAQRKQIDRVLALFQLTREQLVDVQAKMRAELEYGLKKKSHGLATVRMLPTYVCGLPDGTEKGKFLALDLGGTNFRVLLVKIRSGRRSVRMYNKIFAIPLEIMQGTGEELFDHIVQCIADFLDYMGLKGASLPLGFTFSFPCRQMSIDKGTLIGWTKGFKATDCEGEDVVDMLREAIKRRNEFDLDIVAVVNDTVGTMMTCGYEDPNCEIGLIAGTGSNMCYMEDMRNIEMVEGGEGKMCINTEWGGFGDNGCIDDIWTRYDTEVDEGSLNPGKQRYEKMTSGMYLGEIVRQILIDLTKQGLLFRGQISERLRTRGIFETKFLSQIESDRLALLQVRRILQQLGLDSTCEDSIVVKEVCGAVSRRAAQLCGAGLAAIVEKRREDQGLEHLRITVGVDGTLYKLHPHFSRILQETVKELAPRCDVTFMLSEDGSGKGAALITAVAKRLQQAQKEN
Briefly: HKDC1 hexokinase inhibitors, SAR follow-up, biochemical, set 2 (AID 588355). The class given is functional.

Assay [2] deals with Intestinal-type alkaline phosphatase (Homo sapiens, UniProt P09923). Briefly: Dose Response confirmation of uHTS hits from a small molecule inhibitors of human intestinal alkaline phosphatase via a luminescent assay. [Related pubchem assays (depositor defined):AID2544, AID2574]. It counts as functional.
Assay [3] addresses T3, Dual specificity protein phosphatase 6 (Rattus norvegicus, UniProt Q64346).
T3 sequence (Q64346 whole entry): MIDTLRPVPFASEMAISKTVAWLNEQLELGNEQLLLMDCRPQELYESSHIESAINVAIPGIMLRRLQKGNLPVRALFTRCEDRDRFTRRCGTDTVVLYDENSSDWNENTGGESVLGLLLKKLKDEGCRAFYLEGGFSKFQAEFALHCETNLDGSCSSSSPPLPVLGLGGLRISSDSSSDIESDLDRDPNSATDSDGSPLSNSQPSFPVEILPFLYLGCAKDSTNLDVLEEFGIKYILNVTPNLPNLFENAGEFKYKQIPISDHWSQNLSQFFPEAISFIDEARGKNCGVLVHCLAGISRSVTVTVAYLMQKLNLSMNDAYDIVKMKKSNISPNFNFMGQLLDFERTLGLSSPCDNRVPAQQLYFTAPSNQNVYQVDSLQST

For a further assay, the target named is Keap1/Nrf2 (Homo sapiens, UniProt Q14145). Briefly: Keap1-Nrf2 protein-protein interaction inhibitors, dose response, biochemical, fluorescence polarization, cherry-picked samples (AID 588683). For orientation: Polarisation of emitted light reports the rotation of a fluorescent probe.
Assay [4] addresses Non-receptor tyrosine-protein kinase TYK2 (Homo sapiens, UniProt P29597). The class given is functional.
In assay [5] the target is MAP kinase-activated protein kinase 2 (Homo sapiens, UniProt P49137). The class given is functional.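 Note: measured as one member of a kinome-wide kinase panel.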
In assay [6] the target is cGMP-dependent protein kinase 1 (Homo sapiens, UniProt Q13976). The class given is functional.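 Note: value from a kinome panel screen with PRKG1 as the panel member.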
Assay [7] addresses Receptor-type tyrosine-protein kinase FLT3 (Homo sapiens, UniProt P36888). It counts as functional.
For assay [8], the target named is Hepatocyte growth factor receptor (Homo sapiens, UniProt P08581). It counts as functional.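 Note: kinase panel profiling across the kinome, with MET as the panel member.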
For assay [9], the target named is Phosphorylase b kinase gamma catalytic chain, liver/testis isoform (Homo sapiens, UniProt P15735). The class given is functional.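 Note: PHKG2 measured as one member of a kinome-wide kinase panel.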
Assay [10] has as its target MAP/microtubule affinity-regulating kinase 3 (Homo sapiens, UniProt P27448). The class given is functional.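 Note: MARK3 affinity measured as one member of a kinome panel.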
Assay [11] has as its target Tyrosine-protein kinase JAK3 (Homo sapiens, UniProt P52333). It counts as functional.
Assay [12] addresses Vascular endothelial growth factor receptor 3 (Homo sapiens, UniProt P35916). It counts as functional.
The target of assay [13] is Casein kinase I isoform gamma-1 (Homo sapiens, UniProt Q9HCP0). The class given is functional.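 Note: measured as the CSNK1G1 member of a kinome profiling panel.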
Assay [14] deals with Casein kinase I isoform delta (Homo sapiens, UniProt P48730). The class given is functional.
The target in assay [15] is Proto-oncogene tyrosine-protein kinase ROS (Homo sapiens, UniProt P08922). The class given is functional.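 Note: ROS1 tested as one member of a kinome-wide kinase panel.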
For a further assay, the target named is Focal adhesion kinase 1 (Homo sapiens, UniProt Q05397). It counts as functional.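 Note: measured as one member of a kinome panel.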

Activity calls are given as the source filed them.
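Throughout, for EC50: Cell-based luminescence dose-response assay of agonist activity at LXR, run as a confirmatory counterscreen to a daf-12 agonist screen; HEK293 cells with Gal4-LXR fusion and GAL4-driven luciferase reporter; agonist potency from rising luciferase signal of a Gal4-LXR reporter.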

Sequence of MAP kinase-activated protein kinase 2 (P49137 whole entry): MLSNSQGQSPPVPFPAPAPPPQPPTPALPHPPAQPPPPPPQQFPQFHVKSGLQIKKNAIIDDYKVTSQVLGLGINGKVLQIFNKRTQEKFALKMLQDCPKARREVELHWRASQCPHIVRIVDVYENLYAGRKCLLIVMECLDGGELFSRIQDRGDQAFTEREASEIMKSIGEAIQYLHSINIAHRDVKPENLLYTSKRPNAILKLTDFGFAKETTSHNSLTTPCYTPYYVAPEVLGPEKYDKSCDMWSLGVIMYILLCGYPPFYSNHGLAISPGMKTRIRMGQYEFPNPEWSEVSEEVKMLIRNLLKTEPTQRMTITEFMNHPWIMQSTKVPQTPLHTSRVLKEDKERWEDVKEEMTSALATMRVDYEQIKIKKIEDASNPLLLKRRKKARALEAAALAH
Sequence of Intestinal-type alkaline phosphatase (P09923 whole entry): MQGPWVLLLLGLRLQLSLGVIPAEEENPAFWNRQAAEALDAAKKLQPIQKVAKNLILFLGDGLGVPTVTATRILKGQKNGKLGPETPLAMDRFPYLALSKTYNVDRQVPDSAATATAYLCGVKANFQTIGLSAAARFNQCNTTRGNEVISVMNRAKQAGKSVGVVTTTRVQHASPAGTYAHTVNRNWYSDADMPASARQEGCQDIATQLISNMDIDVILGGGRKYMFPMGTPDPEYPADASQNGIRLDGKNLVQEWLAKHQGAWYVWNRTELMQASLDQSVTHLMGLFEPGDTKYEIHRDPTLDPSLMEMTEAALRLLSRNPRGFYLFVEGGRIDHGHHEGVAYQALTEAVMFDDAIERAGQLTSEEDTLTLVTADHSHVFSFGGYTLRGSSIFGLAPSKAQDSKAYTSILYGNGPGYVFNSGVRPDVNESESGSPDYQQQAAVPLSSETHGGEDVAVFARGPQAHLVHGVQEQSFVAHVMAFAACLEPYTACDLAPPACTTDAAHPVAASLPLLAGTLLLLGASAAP
Sequence of Keap1/Nrf2 (Q16236 whole entry): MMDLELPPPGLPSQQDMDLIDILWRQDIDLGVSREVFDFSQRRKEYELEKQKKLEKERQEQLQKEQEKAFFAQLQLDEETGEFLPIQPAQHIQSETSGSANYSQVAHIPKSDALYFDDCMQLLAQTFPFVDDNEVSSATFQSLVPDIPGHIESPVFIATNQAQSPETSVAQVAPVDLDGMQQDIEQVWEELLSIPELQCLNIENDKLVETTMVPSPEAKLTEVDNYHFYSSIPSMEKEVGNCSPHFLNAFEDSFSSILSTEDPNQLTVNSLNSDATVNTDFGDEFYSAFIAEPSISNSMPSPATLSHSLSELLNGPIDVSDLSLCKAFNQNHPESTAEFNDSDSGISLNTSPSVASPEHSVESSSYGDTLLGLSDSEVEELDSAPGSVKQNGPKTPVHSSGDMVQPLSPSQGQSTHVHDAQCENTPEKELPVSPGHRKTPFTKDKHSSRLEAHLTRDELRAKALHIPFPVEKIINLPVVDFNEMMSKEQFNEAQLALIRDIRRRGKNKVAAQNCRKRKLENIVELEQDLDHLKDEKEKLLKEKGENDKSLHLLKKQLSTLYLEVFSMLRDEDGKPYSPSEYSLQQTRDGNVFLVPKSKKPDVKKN
Sequence of Keap1/Nrf2 (Q14145 whole entry): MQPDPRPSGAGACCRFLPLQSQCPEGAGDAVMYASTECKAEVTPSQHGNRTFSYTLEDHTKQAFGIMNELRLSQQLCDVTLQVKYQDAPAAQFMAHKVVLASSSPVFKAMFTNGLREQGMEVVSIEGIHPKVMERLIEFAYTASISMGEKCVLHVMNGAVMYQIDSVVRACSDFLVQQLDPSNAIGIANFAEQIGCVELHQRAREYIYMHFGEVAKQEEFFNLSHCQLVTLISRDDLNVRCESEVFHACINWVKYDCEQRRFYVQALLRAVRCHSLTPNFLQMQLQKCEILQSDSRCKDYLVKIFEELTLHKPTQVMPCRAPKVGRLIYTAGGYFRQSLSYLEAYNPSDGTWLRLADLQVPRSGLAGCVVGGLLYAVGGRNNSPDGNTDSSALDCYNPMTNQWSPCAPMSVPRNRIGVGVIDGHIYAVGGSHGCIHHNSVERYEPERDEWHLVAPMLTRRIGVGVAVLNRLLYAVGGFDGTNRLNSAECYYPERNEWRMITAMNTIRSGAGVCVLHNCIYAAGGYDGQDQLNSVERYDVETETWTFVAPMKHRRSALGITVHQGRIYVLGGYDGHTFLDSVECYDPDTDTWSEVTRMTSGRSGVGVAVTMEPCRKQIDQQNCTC
Sequence of Casein kinase I isoform delta (P48730 whole entry, canonical isoform): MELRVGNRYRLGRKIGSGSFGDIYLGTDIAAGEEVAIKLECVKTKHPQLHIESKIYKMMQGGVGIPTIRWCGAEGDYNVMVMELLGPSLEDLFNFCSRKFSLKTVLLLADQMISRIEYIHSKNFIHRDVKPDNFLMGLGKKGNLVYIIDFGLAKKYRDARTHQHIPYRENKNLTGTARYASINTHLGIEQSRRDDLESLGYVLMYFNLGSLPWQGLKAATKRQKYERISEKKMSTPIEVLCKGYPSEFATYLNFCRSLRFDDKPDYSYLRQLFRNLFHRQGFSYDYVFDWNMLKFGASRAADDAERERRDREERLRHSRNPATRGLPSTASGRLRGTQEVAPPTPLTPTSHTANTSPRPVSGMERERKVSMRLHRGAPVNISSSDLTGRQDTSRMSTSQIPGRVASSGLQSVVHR
Sequence of Receptor-type tyrosine-protein kinase FLT3 (P36888 whole entry): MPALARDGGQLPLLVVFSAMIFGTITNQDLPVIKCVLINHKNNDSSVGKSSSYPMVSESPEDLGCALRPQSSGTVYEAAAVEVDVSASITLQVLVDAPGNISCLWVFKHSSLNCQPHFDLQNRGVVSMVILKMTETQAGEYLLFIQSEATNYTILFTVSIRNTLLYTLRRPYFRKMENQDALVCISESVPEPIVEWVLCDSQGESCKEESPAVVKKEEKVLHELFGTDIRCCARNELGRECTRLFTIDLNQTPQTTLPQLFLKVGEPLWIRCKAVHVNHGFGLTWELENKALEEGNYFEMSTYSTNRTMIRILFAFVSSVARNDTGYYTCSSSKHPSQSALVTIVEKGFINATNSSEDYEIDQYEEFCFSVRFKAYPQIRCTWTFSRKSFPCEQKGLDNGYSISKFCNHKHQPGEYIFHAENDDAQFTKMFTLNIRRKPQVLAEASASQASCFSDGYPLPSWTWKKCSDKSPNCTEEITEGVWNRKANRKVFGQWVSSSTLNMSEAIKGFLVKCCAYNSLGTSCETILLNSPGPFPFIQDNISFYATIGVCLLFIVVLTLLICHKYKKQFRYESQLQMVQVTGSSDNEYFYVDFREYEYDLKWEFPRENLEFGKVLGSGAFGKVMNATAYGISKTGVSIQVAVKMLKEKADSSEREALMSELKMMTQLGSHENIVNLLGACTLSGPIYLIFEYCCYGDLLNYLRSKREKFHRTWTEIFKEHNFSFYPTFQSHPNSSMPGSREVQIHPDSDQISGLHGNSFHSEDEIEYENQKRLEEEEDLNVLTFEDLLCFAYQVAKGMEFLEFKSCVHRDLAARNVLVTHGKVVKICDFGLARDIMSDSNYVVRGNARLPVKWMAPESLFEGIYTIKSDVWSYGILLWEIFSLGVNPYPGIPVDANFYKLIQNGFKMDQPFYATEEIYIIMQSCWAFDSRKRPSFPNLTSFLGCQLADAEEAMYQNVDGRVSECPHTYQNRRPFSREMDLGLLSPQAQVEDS
Sequence of Casein kinase I isoform gamma-1 (Q9HCP0 whole entry, canonical isoform): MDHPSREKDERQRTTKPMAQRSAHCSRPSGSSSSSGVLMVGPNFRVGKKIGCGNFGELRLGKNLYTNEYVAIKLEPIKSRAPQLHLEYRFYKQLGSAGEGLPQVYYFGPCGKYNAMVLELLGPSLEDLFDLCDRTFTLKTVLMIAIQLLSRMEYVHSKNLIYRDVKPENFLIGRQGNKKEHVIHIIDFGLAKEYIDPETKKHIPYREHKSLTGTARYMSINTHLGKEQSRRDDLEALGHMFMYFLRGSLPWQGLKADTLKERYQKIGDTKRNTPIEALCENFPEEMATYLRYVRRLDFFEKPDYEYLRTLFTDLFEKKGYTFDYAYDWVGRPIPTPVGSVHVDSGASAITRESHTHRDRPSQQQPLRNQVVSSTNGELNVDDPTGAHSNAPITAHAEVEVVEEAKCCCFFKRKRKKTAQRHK
Sequence of Focal adhesion kinase 1 (Q05397 whole entry): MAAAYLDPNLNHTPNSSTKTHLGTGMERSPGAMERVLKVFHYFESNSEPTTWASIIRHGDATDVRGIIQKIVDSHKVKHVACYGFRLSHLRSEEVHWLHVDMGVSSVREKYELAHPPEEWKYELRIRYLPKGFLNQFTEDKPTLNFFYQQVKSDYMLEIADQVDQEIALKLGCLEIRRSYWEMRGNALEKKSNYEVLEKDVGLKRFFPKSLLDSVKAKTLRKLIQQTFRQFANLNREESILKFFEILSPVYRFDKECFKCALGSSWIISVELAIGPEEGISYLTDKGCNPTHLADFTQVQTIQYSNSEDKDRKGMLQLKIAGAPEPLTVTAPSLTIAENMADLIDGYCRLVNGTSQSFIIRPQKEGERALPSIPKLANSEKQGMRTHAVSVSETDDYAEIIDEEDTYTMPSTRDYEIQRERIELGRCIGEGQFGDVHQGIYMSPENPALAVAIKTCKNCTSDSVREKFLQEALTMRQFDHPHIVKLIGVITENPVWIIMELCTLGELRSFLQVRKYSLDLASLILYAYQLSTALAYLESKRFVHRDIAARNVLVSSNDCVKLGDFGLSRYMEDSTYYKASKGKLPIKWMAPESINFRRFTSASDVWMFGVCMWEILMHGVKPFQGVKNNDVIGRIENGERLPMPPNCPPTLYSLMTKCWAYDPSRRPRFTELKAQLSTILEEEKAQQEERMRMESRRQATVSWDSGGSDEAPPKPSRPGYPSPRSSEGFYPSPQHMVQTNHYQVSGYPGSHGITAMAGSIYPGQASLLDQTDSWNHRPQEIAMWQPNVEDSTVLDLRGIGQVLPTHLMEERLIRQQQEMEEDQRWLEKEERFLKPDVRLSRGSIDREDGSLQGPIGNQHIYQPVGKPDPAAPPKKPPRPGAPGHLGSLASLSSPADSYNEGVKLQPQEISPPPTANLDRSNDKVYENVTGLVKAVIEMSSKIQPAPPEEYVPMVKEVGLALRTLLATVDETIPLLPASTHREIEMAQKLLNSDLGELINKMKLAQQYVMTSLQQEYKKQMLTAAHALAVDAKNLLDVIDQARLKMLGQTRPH

Regarding `Clc1ccc2nc(-c3ccc(Br)s3)cn2c1`, in assay [1], the EC50 was > 67.5 µM (inactive).
For the molecule `CC(=O)NC1C(=O)N(CCN2CCOCC2)c2ccc(F)cc21` (stereo not drawn), the IC50 at Hexokinase HKDC1 was 14.9 µM (active).
With `Oc1ccc(N=Nc2c(O)ccc3ccccc23)cc1`, the IC50 in [2] is 17.7 µM (inactive).
Regarding `O=C(O)C1Nc2c(O)cc(Cl)c([N+](=O)[O-])c2C2C=CCC12` (stereo not drawn), in [3], the IC50 was 36.8 µM (active). The AC50 on Keap1/Nrf2 is > 52 µM (inactive).
For the molecule `Cc1n[nH]c2ccc(-c3cncc(OCC(N)Cc4cccc(Cl)c4)c3)cc12` (stereo not drawn), the Ki in assay [4] is > 2 µM (inactive); in [5], 0.631 µM (active); in [6] it was 0.01 µM (active); in assay [7], 0.158 µM (active); in assay [8], > 3.16 µM (inactive); in assay [9] it was 0.794 µM (active). Moreover, the Ki in assay [10] was 0.251 µM (active); in [11] it was 0.794 µM (active); in [12] it was 2.51 µM (active); in assay [13], 0.0794 µM (active); in assay [14], 0.0316 µM (active); in assay [15], 0.631 µM (active). The Ki on Focal adhesion kinase 1 was > 1.58 µM (inactive).

For orientation: EC50 means the concentration that produces a half-maximal response. What is called IC50 is the concentration that inhibits the measured activity by half. The term AC50 denotes the midpoint of the concentration-response curve, whichever way the signal moves. As a reminder, the Ki is a dissociation constant, usually derived from enzyme kinetics or from competition with a known ligand.
